The record followed here is ChEMBL document CHEMBL3870346, “Development of a simple proton nuclear magnetic resonance-based procedure to estimate the approximate distribution coefficient at physiological pH (logD7.4): Evaluation and comparison to existing practices” (Bioorg Med Chem Lett, 2017).

A word on the logD: it is lipophilicity at a set pH, counting ionised and neutral species. The low end stands for lower lipophilicity, the high end for higher lipophilicity. The logP is a log measure of how a compound divides between an organic and an aqueous phase. High values mean higher lipophilicity, low ones lower lipophilicity.

A short description of data set [1]: physchem. As to conditions: 1-octanol/D2O, pH 7.4.
A short description of data set [2]: n-Octanol/water partition coefficient, log P of the compound by HPLC method.
Data set [3] is described as follows: physchem. As to conditions: buffer, pH 7.4.

Structures can show the parent of a compound that is named as a salt.

In “physchem [1]”, `CCOC(=O)c1ccccc1` [ETHYL BENZOATE] gave a logD of 2.4.
`CC(=O)c1ccccc1` [ACETOPHENONE] returned a logD in “physchem [1]” of 1.7.
For the molecule `c1ccc2c(c1)ccc1ccccc12`, the logP in data set [2] (n-octanol/water) was determined as 4.5. Also, the logD in the data set “physchem [3]” turned out to be 4.5.
In the case of `Oc1ccccc1` [PHENOL], the pH-dependent lipophilicity (logD) in “physchem [1]” was 1.2; in the data set “physchem [3]” it was 1.3.
For `O=[N+]([O-])c1ccccc1O` [NITROPHENOLATE], the log partition coefficient (logP) in data set [2] (n-octanol/water) turned out to be 1.8. Also, the log distribution coefficient (logD) in the data set “physchem [1]” stood at 1.5.
On to `COC(=O)c1ccccc1` [METHYL BENZOATE], for which, in the data set “physchem [1]”, the log distribution coefficient (logD) was determined as 1.9.
The molecule `COc1ccc(O)cc1` [MEQUINOL] gave a logP in data set [2] (n-octanol/water) of 1.3. The figures for the log distribution coefficient (logD) in the data set “physchem [1]” and in “physchem [3]” were 0.8 and 1.3, respectively.
The molecule `c1ccc2ccccc2c1` had a logD in the data set “physchem [3]” of 3.4.
As for `Cc1ccc(O)cc1` [p-CRESOL], the lipophilicity (logP) in data set [2] (octanol/water) was found to be 1.9. In addition, the log distribution coefficient (logD) in “physchem [1]” came out at 2; in “physchem [3]” it was 1.8.
In data set [2] (n-octanol/water), `CCC(C)=O` [BUTANONE] came in with a logP of 0.3. In addition, the pH-dependent lipophilicity (logD) in “physchem [1]” stood at 0.4; in “physchem [3]”, 0.3.
Consider `CCN(CC)CCOC(=O)c1ccc(N)cc1` [PROCAINE HYDROCHLORIDE], for which the logD in “physchem [1]” is -0.4.
The molecule `CC(=O)Nc1ccc(O)cc1` [ACETAMINOPHEN] yielded a log distribution coefficient (logD) in the data set “physchem [1]” of 0.2.
`CC(=O)Nc1ccccc1` [ACETANILIDE]: the log partition coefficient (logP) in data set [2] (octanol/water) stood at 1. Moreover, the figures for the logD in “physchem [1]” and in “physchem [3]” were 0.7 and 1.2, respectively.
In turn, `Cc1ccc(CO)cc1` yielded a logP in data set [2] (n-octanol/water) of 1.6. Further, the pH-dependent lipophilicity (logD) in the data set “physchem [1]” was 1.4; in the data set “physchem [3]”, 1.8.
`N#Cc1ccccc1` [BENZONITRILE] had a lipophilicity (logP) in data set [2] (n-octanol/water) of 1.6. Also, the logD in the data set “physchem [1]” worked out at 1.6.
For the molecule `Nc1ccc(Cl)cc1` [4-CHLOROANILINE], the pH-dependent lipophilicity (logD) in the data set “physchem [1]” was determined as 1.8.
In turn, `c1ccc(Oc2ccccc2)cc1` showed a logD in the data set “physchem [1]” of 3.5.
In the case of `COc1ccccc1` [ANISOLE], the logD in “physchem [1]” and in the data set “physchem [3]” was 2.3 each time.
In data set [2] (n-octanol/water), `Clc1ccccc1` [CHLOROBENZENE] gave a log partition coefficient (logP) of 2.8. The logD in the data set “physchem [1]” is 2.6; in “physchem [3]”, 2.9.
For the molecule `c1ccc(-c2ccccc2)cc1` [BIPHENYL], in data set [2] (octanol/water), the logP was 4. The molecule also came in with a logD in “physchem [3]” of 4.
On to `OCc1ccccc1` [BENZYL ALCOHOL], for which the log distribution coefficient (logD) in “physchem [1]” was 0.9.
